Assay results published in US20220395476A1, “DRUG FOR TREATING ARTERY-RELATED DISEASES, AND USE THEREOF” (SHANGHAI INSTITUTE OF MATERIA MEDICA, CHINESE ACADEMY OF …, priority 2019, published 2022).

Columns and labels:
[1] = tested on: aneurysm induced by porcine pancreatic elastase in C57BL/6 mice; test: Aneurysm model induced by porcine pancreatic elastase (PPE model); format: in vivo, mouse; conditions: for diameter of aneurysms: 20 mg/kg intraperitoneal injection from Day 5 for 10 days
Experimental: (§1) The mouse was anesthetized by intraperitoneal injection of 1% pentobarbital sodium at the dose of 20 mg/kg. After the mouse entering anesthesia state, the abdominal hair was shaved off with a razor and further thoroughly depilated with depilatory cream. The abdomen was dried and the mouse was fixed on the operating table. Its body temperature was kept with a heating pad under the body. The abdominal skin was wiped with iodine and deiodined with 75% ethanol. An incision of about 1.5 cm was cut in the middle of the abdomen. The organs were carefully pushed away with tweezers. Then the intestine was divided to the left and right sides with gauze wetted with 3% penicillin-streptomycin. The connective tissue and muscle tissue on the surface of the aorta were carefully separated with tweezers to fully expose the abdominal aorta.
(§2) Sterilized absorbent paper (0.3 cm×0.3 cm) was fully infiltrated in porcine pancreatic elastase (PPE), and then applied on the exposed abdominal aorta for 50 minutes. A gauze wetted with normal saline containing 3% penicillin-streptomycin was placed on the abdominal incision to prevent the abdominal water from excessive loss. After 50 minutes, the absorbent paper on the aorta was carefully taken away. The abdominal cavity was rinsed with normal saline containing 3% penicillin-streptomycin. The peritoneum and skin were sutured with ⅜ suture needle and 5/0 suture line. After suturing, the wound was wiped with iodine and deiodined with 75% ethanol after 1 min. The mouse was placed into a clean feeding cage and can eat and drink freely.
(§3) Sample Fixation, Dehydration, Paraffin Embedding and Slicing 100 ml of formaldehyde, 4 g of sodium dihydrogen phosphate and 6.5 g of disodium hydrogen phosphate were dissolved in 900 ml of distilled water to prepare a polyoxymethylene fixed solution with a volume ratio of 10%. The aortic tissue was fixed in polyoxymethylene fixation solution for 72 hours, then washed with tap water for 4-6 hrs and placed in the dehydrator. The program was set for automatic dehydration, with 75% ethanol for 1.5 hours, 95% ethanol for 1.5 hours, 100% ethanol for 1.5 hours, dimethylbenzene for 1.5 hours and paraffin for 1.5 hours, successively. The paraffin embedding machine was opened 2 hours in advance to melt paraffin, and the temperature was controlled at 60° C. After the paraffin was melted, the dehydrated aortic tissue was embedded in paraffin. It was poured into the embedding box, and the paraffin soaked tissue block was placed into the embedding frame using heated tweezers and gently moved to the cold table. The paraffin block was taken off for slicing after the paraffin was solidified. Before slicing, the paraffin block was put into refrigerator for pre-cooling. After cooling, the paraffin block was cut into continuous 5 μM-thick paraffin sections using the slicer. The sections were unfolded on warm water at 38° C. in a slide spreader, fished with slides coated with APES, and dried naturally for subsequent histopathological staining.
The tissue was fixed, embedded and cut into 4 μM paraffin sections. […]

[2] = tested on: aneurysms, intramural hematomas and arterial dissections induced by porcine pancreatic elastase and 1% β-aminopropionitrile in C57BL/6 mice; test: Aneurysm, intramural hematoma and arterial dissection model induced by porcine pancreatic elastase and 1% β-aminopropionitrile (PPE+BAPN model); format: in vivo, mouse; conditions: for histological analysis of the vessel wall: Day 15
Experimental: as §1
as §2, with “away. And the” for “away. The”, “feeding cage, fed with 1% β-aminopropionitrile (BAPN) feed” for “feeding cage”, “freely. The feed was changed every other day.” for “freely.”
as §3
The tissue was fixed, embedded and cut into 4 μM paraffin sections. The paraffin sections were firstly baked (65° C., 60 minutes), and then dewaxed to aqueous phase (dimethylbenzene for 15 minutes→absolute ethanol for 5 minutes→95% ethanol for 5 minutes→75% ethanol for 5 minutes→running water for 1 minute); stained with hematoxylin for 15 minutes and then rinsed with running water for 4 minutes; differentiated with 1% ethanol hydrochloride for 5 seconds (the differentiation time was adjusted according to the preparation time of differentiation solution) and rinsed with running water for 5 minutes; then stained with eosin for 1 minute and placed in water for 1 minute; dehydrated and then permeated with dimethylbenzene (75% ethanol for 5 minutes→95% ethanol for 5 minutes→absolute ethanol for 5 minutes→dimethylbenzene for 15 minutes) and sealed with neutral gum.

[3] = evaluated Day 15, vs model control
[4] = 100 mg/kg intragastric administration from Day 5 for 10 days, evaluated Day 15
[5] = 50 mg/kg orally via gavage from Day 5 for 10 days, evaluated Day 15
[6] = 100 mg/kg intraperitoneal injection from Day 5 for 10 days
[7] = 100 mg/kg intraperitoneal injection from Day 5 for 10 days, evaluated Day 15

Row | Molecule | histological analysis of the vessel wall [2, 6] | diameter / expansion of aneurysm (maximum blood vessel diameter of arteriopathy site) [2, 7] | occurrence of intramural hematoma and arterial dissection [2, 7] | also measured
1 | O=C(O)/C=C/c1ccc(O)c(O)c1 [Caffeic acid] | – | – | – | diameter of aneurysms [1, 3]: significantly reduced the diameter and expansion of aneurysm in mouse (P<0.01)
2 | O=C(O)/C=C/c1ccc(O)cc1 [p-Coumaric acid] | – | – | – | diameter of infrarenal aneurysm [2, 4]: significantly reduced the diameter of infrarenal aneurysm in mouse
3 | COc1cc(/C=C/C(=O)O)ccc1O [Piperazine ferulate, reference compound] | – | – | – | histological analysis of the vessel wall ([2]; 50 mg/kg orally via gavage from Day 5 for 10 days): reduced the thickness of vessel wall and protected the integrity of vessel structure; expansion of arteries (maximum blood vessel diameter) [2, 5]: significantly reduced the expansion of arteries in mouse (P<0.001); occurrence of aneurysm, intramural hematoma and arterial dissection [2, 5]: significantly reduced the occurrence of aneurysm, intramural hematoma and arterial dissection
4 | COc1cc2ccc(=O)oc2cc1O [Scopoletin] | – | – | – | diameter of infrarenal aneurysm [2, 4]: significantly reduced the diameter of infrarenal aneurysm in mouse
5 | CC(C)(C)C(=O)Oc1ccc(S(=O)(=O)Nc2ccccc2C(=O)NCC(=O)[O-])cc1.[Na+] [Sivelestat sodium, reference compound] | – | – | – | PPE (protective effect) ([1]; aneurysm model induced by porcine pancreatic elastase, mouse): ineffective; PPE + BAPN (protective effect) ([2]; aneurysm model induced by porcine pancreatic elastase and 1% β-aminopropionitrile, mouse): ineffective
6 | COc1ccc(C(C)=O)c(O)c1 [Paeonol] | reduced the thickness of vessel wall and protected the integrity of vessel structure | significantly reduced the diameter of infrarenal aneurysm in mouse (P<0.001) | reduced the occurrence of infrarenal artery intramural hematoma and arterial dissection in mouse | –
7 | O=c1ccc2ccccc2o1 [Coumarin] | – | – | – | diameter of infrarenal aneurysm [2, 4]: significantly reduced the diameter of infrarenal aneurysm in mouse
8 | O=C(/C=C/c1ccc(O)c(O)c1)OCCc1ccccc1 [Phenethyl caffeate] | reduced the thickness of vessel wall and protected the integrity of vessel structure | significantly reduced the diameter of artery expansion in mouse (P<0.01) | significantly reduced the occurrence of intramural hematoma and arterial dissection, and the arterial rupture in mouse | diameter of infrarenal aneurysms ([1]; 100 mg/kg orally via gavage from Day 5 for 10 days, evaluated Day 15, vs model control): significantly reduced the diameter of infrarenal aneurysms in mouse (P<0.001)
9 | COc1cc(/C=C/C(=O)O)ccc1O [Ferulic acid] | protected the integrity of vessel structure, inhibited the degradation of elastic layer, inhibited the occurrence of intramural hematoma | significantly reduced the expansion of aneurysm in mouse (P<0.001) | significantly reduced the occurrence of intramural hematoma and arterial dissection, and the arterial rupture in mouse | diameter of aneurysms [1, 3]: significantly reduce the diameter of aneurysms in mouse (P<0.001)
10 | Cc1ccc(C(C)C)cc1O [Carvacrol] | reduced the thickness of vessel wall and protected the integrity of vessel structure | significantly reduced the diameter of infrarenal aneurysm in mouse (P<0.001) | reduced the occurrence of infrarenal aneurysm, intramural hematoma and arterial dissection in mouse | –
11 | COC(=O)[C@@H](Cc1ccc(O)c(O)c1)OC(=O)/C=C/c1ccc(O)c(O)c1 [Methyl rosmarinate] | reduced the thickness of vessel wall and protected the integrity of vessel structure | – | significantly reduced the occurrence of infrarenal aneurism, intramural hematoma and arterial dissection in mouse | –
12 | O=C(O)[C@H](O)Cc1ccc(O)c(O)c1 [Danshensu] | – | – | – | diameter of aneurysms [1, 3]: significantly reduced the diameter and expansion of aneurysm (P<0.01)
13 | Aspirin eugenol ester | reduced the thickness of vessel wall and protected the integrity of vessel structure | – | significantly reduced the occurrence of infrarenal artery intramural hematoma and arterial dissection in mouse (P<0.001) | –
14 | C=CCc1ccc(O)c(OC)c1 [Eugenol] | – | significantly reduced the diameter of infrarenal aneurysm in mouse (P<0.01) | reducing the occurrence of infrarenal artery intramural hematoma and arterial dissection and the arterial rupture in mouse | diameter of infrarenal aneurysm [2, 4]: significantly reduced the diameter of infrarenal aneurysm in mouse (P<0.001); occurrence of infrarenal artery intramural hematoma and arterial dissection [2, 4]: reducing the occurrence of infrarenal artery intramural hematoma and arterial dissection in mouse
